{"source": "patent US8309790B2", "about": "“Animal models for demyelination disorders” (University of Chicago, priority 2005, dated 2012)", "key": {"[1]": {"tested_on": "corpus callosum of double transgenic mice treated with cuprizone", "test": "Cuprizone-induced demyelination and remyelination in GFAP/tTA; TRE/IFN-γ double transgenic mice", "format": "in vivo", "method": "The effects of IFN-γ on demyelination were evaluated in a cuprizone animal model using transgenic mice that allow for temporally regulated delivery of IFN-γ using the tetracycline controllable system (Lin, et al. (2004) J. Neurosci. 24: 10074-10083). The transgenic mice were generated by mating line 110 GFAP/tTA mice on the C57BL/6 background with line 184 TRE/IFN-γ on the C57BL/6 background to produce GFAP/tTA; TRE/IFN-γ double transgenic mice (Lin, et al. (2004) J. Neurosci. 24: 10074-10083). Transcriptional activation of the TRE/IFN-γ transgene by tTA was repressed in the control (DOX+) mice by adding 0.05 mg/ml doxycycline to the drinking water which was provided ad libitum from the day of conception. The DOX+ double transgenic mice were GFAP/tTA; TRE/IFN-γdouble transgenic animals fed cuprizone chow and never released from the doxycycline solution. DOX− double transgenic mice were GFAP/tTA; TRE/IFN-γdouble transgenic animals fed cuprizone chow and released from doxycycline to induce expression of IFN-γ.\nDemyelination was induced in 6-week-old DOX+ and DOX− male mice by feeding the mice a diet of milled mouse chow containing 0.2% cuprizone (Sigma-Aldrich, St. Louis, […].) for up to 6 weeks. Subsequently, both groups of mice were returned to a normal diet for up to 3 weeks to allow remyelination to occur. All animal procedures were conducted in complete compliance with the NIH Guide for the Care and Use of Laboratory Animals and were approved by the Institutional Animal Care and Use Committee of The University of Chicago.\nThe effects of INF-γ and MBP on demyelination were evaluated as the level of INF-γ and MHC-1, the loss of oligodendrocytes, and the expression of myelin genes.\nThe expression of IFN-γ in these animals was examined by Enzyme-Linked Immunosorbent Assay (ELISA) analysis as follows. Spinal cord and forebrains were removed, rinsed in ice cold PBS, and immediately homogenized in five volumes of PBS with complete protease cocktail (Roche, Indianapolis, Ind.) using a motorized homogenizer. After incubation on ice for 5 min the extracts were cleared by centrifugation at 14000 rpm for 10 min. The protein content of each extract was determined by the DC protein assay (Bio-Rad, Hercules, Calif.). […]\nThe effect of INF-γ on the population of oligodendrocytes was evaluated by immunohistochemical analysis of oligodendrocytes using an anti-CC1 antibody (APC7, 1:50; EMD Biosciences, Inc., La Jolla, Calif.) Immunohistochemistry was performed on brain sections obtained from mice that were first anesthetized mice and perfused through the left cardiac ventricle with 4% paraformaldehyde in 0.1 M PBS. […]"}, "[2]": {"tested_on": "oligodendrocytes in adult mice", "test": "IFN-γ expression in the CNS of adult double transgenic mice (released from doxycycline at 4 weeks of age)", "format": "in vivo", "excerpt": "Compared with the actively myelinating oligodendrocytes of young growing animals, oligodendrocytes in adult mice produce lower levels of membrane proteins and lipids, just enough to maintain homeostasis in the myelin structure (Morell, et al. (1999) Basic Neurochemistry: Molecular, Cellular, and Medical Aspects (Philadelphia, Pa.: Lippincott-Raven Publishers): 69-93). The ER of oligodendrocytes in adult animals may thus have more spare capacity to process increased protein load and as such may be less sensitive to disruptions of the protein secretory pathway. To examine this possibility, double transgenic mice were allowed to develop to maturity, at which time IFN-γ expression in the CNS was initiated."}}, "data": [{"substance": "interferon-γ [IFN-γ]", "values": [{"measurement": "remyelinated axons", "setting": "[1]; DOX− mice, corpus callosum, 8 weeks, EM", "result": "26.9%±7%"}, {"measurement": "expression of myelin genes MBP, PLP and CGT", "setting": "[1]; DOX− mice, corpus callosum, week 6 and week 8", "result": "significantly depressed"}, {"measurement": "expression of MHC class I (MHC-I) in the corpus callosum, real-time PCR", "setting": "[1]; DOX− mice, during remyelination", "result": "significant increase"}, {"measurement": "effect on the initial pathological processes induced by cuprizone exposure", "setting": "[1]; DOX− vs DOX+ mice, up to 5 weeks cuprizone", "result": "does not have a significant effect"}, {"measurement": "BIP and CHOP in the cerebellum", "setting": "[2]; 10-week-old mice released from doxycycline at 4 weeks of age", "result": "modest induction"}, {"measurement": "oligodendrocyte survival", "setting": "[2]; adult mice, wild-type or PERK+/− background", "result": "did not affect"}]}]}
